28 compounds from patent US20100168102A9, “Amide Derivatives as Kinase Inhibitors” (Devgen NV, priority 2005, published 2010) can be followed below.

Where a name gives a salt, the structure may show the parent alone. Read-outs that look alike come from different tables or passages of the source.

One experiment concerns the target T1, PKC epsilon (Homo sapiens, UniProt Q02156).
T1 construct: purchased Invitrogen P2282
T1 sequence (Q02156 1-737): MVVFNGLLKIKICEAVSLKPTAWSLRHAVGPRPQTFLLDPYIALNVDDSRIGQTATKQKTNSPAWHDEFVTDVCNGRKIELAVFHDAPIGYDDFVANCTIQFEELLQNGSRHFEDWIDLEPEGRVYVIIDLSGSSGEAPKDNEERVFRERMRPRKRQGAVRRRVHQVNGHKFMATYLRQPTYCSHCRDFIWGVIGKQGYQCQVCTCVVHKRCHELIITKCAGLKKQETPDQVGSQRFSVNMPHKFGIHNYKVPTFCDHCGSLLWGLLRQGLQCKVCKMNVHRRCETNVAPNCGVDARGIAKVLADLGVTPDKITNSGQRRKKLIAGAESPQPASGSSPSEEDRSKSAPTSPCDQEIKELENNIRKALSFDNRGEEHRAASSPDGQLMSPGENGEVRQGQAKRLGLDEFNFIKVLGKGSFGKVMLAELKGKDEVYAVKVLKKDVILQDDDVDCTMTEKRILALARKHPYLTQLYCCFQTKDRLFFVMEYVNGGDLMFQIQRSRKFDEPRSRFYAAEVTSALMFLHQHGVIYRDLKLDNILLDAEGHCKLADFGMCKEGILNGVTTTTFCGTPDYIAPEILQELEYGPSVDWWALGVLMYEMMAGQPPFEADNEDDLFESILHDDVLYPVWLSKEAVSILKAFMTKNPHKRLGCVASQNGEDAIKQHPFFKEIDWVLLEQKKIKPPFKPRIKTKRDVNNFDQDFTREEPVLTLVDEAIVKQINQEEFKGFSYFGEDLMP
Description: Biochemical assay for PKC epsilon (fluorescence polarization, Protein Kinase C Assay Kit, Red). As to conditions: read-out: IC50 μM PKCε. A digest of the protocol:
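PKC epsilon at 10 ng/ml final was preincubated 30 min at room temperature with compound in HEPES pH 7.4 with DTT and Triton X-100. ATP/protein substrate was then added in buffer with MgCl2 and CaCl2 for 80 min. The reaction was stopped with EDTA, phosphorylation was detected by fluorescence polarization with rhodamine tracer and anti-phosphoserine antibody, and IC50 values came from curve fits.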
A general note: Fluorescence polarisation rises when a labelled molecule tumbles more slowly, as on binding a larger partner.

A further experiment has as its target T2, human ROCKα/ROCKII mix (Homo sapiens, UniProt O75116).
T2 construct: purchased Upstate Biotechnology 14-451
Briefly: Biochemical assay for ROCK (fluorescence polarization, ROCK IMAP Kit).

Setting [1] is: Table 2, compounds of Formula XIII.
Where [2] appears, read: compounds of Formula XIV, Table 3.

T2 sequence (O75116 11-552 limits assumed): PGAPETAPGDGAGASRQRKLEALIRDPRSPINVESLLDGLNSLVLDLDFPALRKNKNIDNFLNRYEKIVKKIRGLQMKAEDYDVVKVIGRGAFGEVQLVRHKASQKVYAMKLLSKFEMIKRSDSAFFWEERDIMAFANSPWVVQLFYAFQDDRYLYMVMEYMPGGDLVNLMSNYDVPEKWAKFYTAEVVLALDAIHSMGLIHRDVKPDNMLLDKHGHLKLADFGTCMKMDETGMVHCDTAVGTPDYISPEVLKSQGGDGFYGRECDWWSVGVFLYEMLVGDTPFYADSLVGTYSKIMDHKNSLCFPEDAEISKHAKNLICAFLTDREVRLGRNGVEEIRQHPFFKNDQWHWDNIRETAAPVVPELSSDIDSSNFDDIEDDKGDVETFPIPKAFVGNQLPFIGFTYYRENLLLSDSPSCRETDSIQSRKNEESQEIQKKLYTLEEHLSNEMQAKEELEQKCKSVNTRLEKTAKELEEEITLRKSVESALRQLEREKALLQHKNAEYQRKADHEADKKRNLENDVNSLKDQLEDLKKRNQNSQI

Consider `Cc1cc(Cl)ccc1NC(=O)NCC(N)c1ccc(C(=O)Nc2ccncc2)cc1` (centres unmarked) [Compound 26, 4-{1-amino-2-[3-(4-chloro-2-methyl-phenyl)-ureido]-ethyl}-N-pyridin-4-yl-benzamide], for which the IC50 on PKC epsilon and on human ROCKα/ROCKII mix was 0.05 to 0.5 µM throughout.
Regarding “4-{1-Amino-2-[(2-biphenyl-4- yl-acetyl)-methyl- amino]-ethyl}- N-pyridin-4-yl-benzamide [Compound 436]”, the IC50 (usually the point on the concentration scale where inhibition reaches its midpoint) on PKC epsilon lay in the range of 5 to 50 µM; on human ROCKα/ROCKII mix, 0.5 to 5 µM.
The matching figures for `N[C@@H](CC(=O)NC1COc2ccccc21)c1ccc(C(=O)Nc2ccncc2)cc1` (mixture of isomers) [Compound 404, 4-[(S)-1-Amino-2-(2,3-dihydro-benzofuran-3-ylcarbamoyl)-ethyl]-N-pyridin-4-yl-benzamide dihydrochloric acid salt]: 0.5 to 5 µM and 0.05 to 0.5 µM.
As to `NC(CNC(=O)C1(c2ccc(F)cc2Cl)CC1)c1ccc(C(=O)Nc2ccncc2)cc1` (centres unmarked) [Compound 387, 4-(1-Amino-2-{[1-(2-chloro-4-fluoro-phenyl)-cyclopropanecarbonyl]-amino}-ethyl)-N-pyridin-4-yl-benzamide], the IC50 at PKC epsilon (setting [1]) is under 0.05 µM; on human ROCKα/ROCKII mix (setting [1]), 0.05 to 0.5 µM.
With `NC(CNC(=O)Cc1ccncc1)c1ccc(C(=O)Nc2ccncc2)cc1` (centres unmarked) [Compound 151, 4-[1-Amino-2-(2-pyridin-4-yl-acetylamino)-ethyl]-N-pyridin-4-yl-benzamide], the IC50 on PKC epsilon (setting [1]) was 5 to 50 µM; against human ROCKα/ROCKII mix (setting [1]) it was 0.5 to 5 µM.
Regarding `CN(CC(N)c1ccc(C(=O)Nc2ccncc2)cc1)C(=O)C1CCSc2ccc(F)cc21` (centres unmarked) [Compound 518, 6-Fluoro-thiochroman-4-carboxylic acid {2-amino-2-[4-(pyridin-4-ylcarbamoyl)-phenyl]-ethyl}-methyl-amide], the IC50 on PKC epsilon and against human ROCKα/ROCKII mix was 5 to 50 µM throughout.
Take `COCCC(=O)NCC(N)c1ccc(C(=O)Nc2ccncc2)cc1` (centres unmarked) [Compound 58, 4-[1-Amino-2-(3-methoxy-propionylamino)-ethyl]-N-pyridin-4-yl-benzamide]: the IC50 on PKC epsilon (setting [1]) fell in the range of 5 to 50 µM; on human ROCKα/ROCKII mix (setting [1]), 0.5 to 5 µM.
Take `NC(CNC(=O)C1(c2ccc(Cl)cc2F)CC1)c1ccc(C(=O)Nc2ccncc2)cc1` (centres unmarked) [Compound 389, 4-(1-Amino-2-{[1-(4-chloro-2-fluoro-phenyl)-cyclopropanecarbonyl]-amino}-ethyl)-N-pyridin-4-yl-benzamide]: the values for the IC50 on PKC epsilon (setting [1]) and on human ROCKα/ROCKII mix (setting [1]) were under 0.05 µM and 0.05 to 0.5 µM, respectively.
Take `Cc1cccc(Cl)c1CNC(=O)CC(N)c1ccc(C(=O)Nc2ccncc2)cc1` (centres unmarked) [Compound 247, 4-[1-Amino-2-(2-chloro-6-methyl-benzylcarbamoyl)-ethyl]-N-pyridin-4-yl-benzamide]: the IC50 on PKC epsilon (setting [2]) lay within 0.5 to 5 µM; on human ROCKα/ROCKII mix (setting [2]), 0.05 to 0.5 µM.
Regarding `NC(CNC(=S)Nc1ccc(C(F)(F)F)cc1)c1ccc(C(=O)Nc2ccncc2)cc1` (centres unmarked) [Compound 16, 4-{1-amino-2-[3-(4-trifluoromethyl-phenyl)-thioureido]-ethyl}-N-pyridin-4-yl-benzamide], the IC50 on PKC epsilon and at human ROCKα/ROCKII mix was 0.5 to 5 µM each time.
For `NC(CC(=O)NCc1ccccc1Br)c1ccc(C(=O)Nc2ccncc2)cc1` (centres unmarked) [Compound 259, 4-[1-Amino-2-(2-bromo-benzylcarbamoyl)-ethyl]-N-pyridin-4-yl-benzamide], the results for the IC50 on PKC epsilon (setting [2]) and at human ROCKα/ROCKII mix (setting [2]) were 0.5 to 5 µM and 0.05 to 0.5 µM, respectively.
Consider `NC(c1ccc(C(=O)Nc2ccncc2)cc1)C1CCCN1C(=O)C1(c2ccc(Cl)cc2F)CC1` (centres unmarked) [Compound 605, 4-(Amino-{1-[1-(4-chloro-2-fluoro-phenyl)-cyclopropanecarbonyl]-pyrrolidin-2-yl}-methyl)-N-pyridin-4-yl-benzamide], for which the IC50 at PKC epsilon and against human ROCKα/ROCKII mix was 0.5 to 5 µM throughout.
For the compound `Cc1cccc(CC(=O)NCC(N)c2ccc(C(=O)Nc3ccncc3)cc2)c1` (centres unmarked) [Compound 143, 4-{1-Amino-2-[2-(3-methyl-phenyl)-acetylamino]-ethyl}-N-pyridin-4-yl-benzamide], the values for the IC50 on PKC epsilon (setting [1]) and against human ROCKα/ROCKII mix (setting [1]) were 0.5 to 5 µM and 0.05 to 0.5 µM, respectively.
Consider `NC(c1ccc(C(=O)Nc2ccncc2)cc1)C1CCCN1C(=O)C1(c2cccc(F)c2)CCCC1` (centres unmarked) [Compound 570, 4-(Amino-{1-[1-(3-fluoro-phenyl)-cyclopentanecarbonyl]-pyrrolidin-2-yl}-methyl)-N-pyridin-4-yl-benzamide], for which the IC50 on PKC epsilon and against human ROCKα/ROCKII mix was 0.5 to 5 µM each time.
With `N[C@@H](CNC(=O)C1(c2ccc(F)cc2)CCCC1)c1ccc(C(=O)Nc2ccncc2)cc1` [Compound 418, 4-((R)-1-Amino-2-{[1-(4-fluoro-phenyl)-cyclopentanecarbonyl]-amino}-ethyl)-N-pyridin-4-yl-benzamide dihydrochloric acid salt], the IC50 at PKC epsilon was 0.05 to 0.5 µM; against human ROCKα/ROCKII mix, 0.5 to 5 µM.
Turning to `NC(CC(=O)NCCc1ccc(Cl)cc1Cl)c1ccc(C(=O)Nc2ccncc2)cc1` (centres unmarked) [Compound 303, 4-{1-Amino-2-[2-(2,4-dichloro-phenyl)-ethylcarbamoyl]-ethyl}-N-pyridin-4-yl-benzamide], the IC50 fell in the range of 0.5 to 5 µM at PKC epsilon (setting [2]) and 0.05 to 0.5 µM on human ROCKα/ROCKII mix (setting [2]).
Turning to `NC(c1ccc(C(=O)Nc2ccncc2)cc1)C1CCCN1C(=O)Cc1ccc(Cl)cc1` (centres unmarked) [Compound 561, 4-(Amino-{1-[2-(4-chloro-phenyl)-acetyl]-pyrrolidin-2-yl}-methyl)-N-pyridin-4-yl-benzamide], the IC50 on PKC epsilon and against human ROCKα/ROCKII mix was 0.5 to 5 µM in each case.
With `NC(c1ccc(C(=O)Nc2ccncc2)cc1)C1CCCN1C(=O)Cc1ccc(Br)cc1` (centres unmarked) [Compound 558, 4-(Amino-{1-[2-(4-bromo-phenyl)-acetyl]-pyrrolidin-2-yl}-methyl)-N-pyridin-4-yl-benzamide], the IC50 on PKC epsilon is 0.5 to 5 µM; against human ROCKα/ROCKII mix, 0.05 to 0.5 µM.
Consider `NC(CNC(=O)c1cnnc2ccccc12)c1ccc(C(=O)Nc2ccncc2)cc1` (centres unmarked) [Compound 113, Cinnoline-4-carboxylic acid {2-amino-2-[4-(pyridin-4-ylcarbamoyl)-phenyl]-ethyl}-amide], for which the IC50 at PKC epsilon (setting [1]) and at human ROCKα/ROCKII mix (setting [1]) was 0.5 to 5 µM each time.
In the case of `CN(CC(N)c1ccc(C(=O)Nc2ccncc2)cc1)C(=O)C1CCOc2ccc(F)cc21` (centres unmarked) [Compound 516, 6-Fluoro-chroman-4-carboxylic acid {2-amino-2-[4-(pyridin-4-ylcarbamoyl)-phenyl]-ethyl}-methyl-amide], the IC50 on PKC epsilon was 5 to 50 µM; against human ROCKα/ROCKII mix it was 0.5 to 5 µM.
With `NC(CNC(=O)CSc1ncccn1)c1ccc(C(=O)Nc2ccncc2)cc1` (centres unmarked) [Compound 64, 4-{1-amino-2-[2-(pyrimidin-2-ylsulfanyl)-acetylamino]-ethyl}-N-pyridin-4-yl-benzamide], the IC50 at PKC epsilon (setting [1]) was in the range of 5 to 50 µM; on human ROCKα/ROCKII mix (setting [1]) it was 0.5 to 5 µM.
Turning to `NC(CNC(=O)c1ccccn1)c1ccc(C(=O)Nc2ccncc2)cc1` (centres unmarked) [Compound 105, Pyridine-2-carboxylic acid {2-amino-2-[4-(pyridin-4-ylcarbamoyl)-phenyl]-ethyl}-amide], the IC50 lay in the range of 5 to 50 µM on PKC epsilon (setting [1]) and 0.5 to 5 µM against human ROCKα/ROCKII mix (setting [1]).
Take `NC(c1ccc(C(=O)Nc2ccncc2)cc1)C1CCCN1C(=O)C1(c2ccc(F)c(F)c2)CCCC1` (centres unmarked) [Compound 589, 4-(Amino-{1-[1-(3,4-difluoro-phenyl)-cyclopentanecarbonyl]-pyrrolidin-2-yl}-methyl)-N-pyridin-4-yl-benzamide]: the IC50 at PKC epsilon and at human ROCKα/ROCKII mix was 0.5 to 5 µM throughout.
For the compound `CN(CC(N)c1ccc(C(=O)Nc2ccncc2)cc1)C(=O)C1(c2ccc(F)cc2)CCCC1` (centres unmarked) [Compound 475, 4-(1-Amino-2-{[1-(4-fluoro-phenyl)-cyclopentanecarbonyl]-methyl-amino}-ethyl)-N-pyridin-4-yl-benzamide], the IC50 on PKC epsilon and on human ROCKα/ROCKII mix was 0.5 to 5 µM each time.
For `NC(CNC(=O)Cc1csc(-c2ccccc2)n1)c1ccc(C(=O)Nc2ccncc2)cc1` (centres unmarked) [Compound 154, 4-{1-Amino-2-[2-(2-phenyl-thiazol-4-yl)-acetylamino]-ethyl}-N-pyridin-4-yl-benzamide], the IC50 on PKC epsilon (setting [1]) was 5 to 50 µM; on human ROCKα/ROCKII mix (setting [1]), 0.05 to 0.5 µM.
Consider “4-{1-amino-2-[2-(4-bromo-2- methoxy-phenyl)- ethylcarbamoyl]-ethyl}-N- pyridin-4-yl-benzamide [Compound 310]”, for which the IC50 at PKC epsilon (setting [2]) fell in the range of 0.5 to 5 µM; at human ROCKα/ROCKII mix (setting [2]), 0.05 to 0.5 µM.
On to `NC(CNC(=O)c1ccc2ccccc2c1)c1ccc(C(=O)Nc2ccncc2)cc1` (centres unmarked) [Compound 70], for which the IC50 fell in the range of 5 to 50 µM at PKC epsilon (setting [1]) and 0.05 to 0.5 µM against human ROCKα/ROCKII mix (setting [1]).
In the same order, the values of `NC(CNC(=O)c1ccnc2ccccc12)c1ccc(C(=O)Nc2ccncc2)cc1` (centres unmarked) [Compound 111, Quinoline-4-carboxylic acid {2-amino-2-[4-(pyridin-4-ylcarbamoyl)-phenyl]-ethyl}-amide] are 0.5 to 5 µM and 0.5 to 5 µM.
